From paper PMC4013053, “Identification of Selective Small Molecule Inhibitors of the Nucleotide-Binding Oligomerization Domain 1 (NOD1) Signaling Pathway” (PLoS ONE, 2014)
≈ marks a conversion by molar mass, not a printed value. Like-named read-outs stand apart in the source and are kept apart here. Blank lines part the entries; values can stand above or below the molecule they belong to.

Experiments:
NOD1 [1] = molecular target: T1, NOD1 (Homo sapiens, UniProt Q9Y239); assay: iE-DAP-stimulated IL-8 release in 293/hNOD1 cells; assay type: cell-based
T1 sequence (Q9Y239 1-953): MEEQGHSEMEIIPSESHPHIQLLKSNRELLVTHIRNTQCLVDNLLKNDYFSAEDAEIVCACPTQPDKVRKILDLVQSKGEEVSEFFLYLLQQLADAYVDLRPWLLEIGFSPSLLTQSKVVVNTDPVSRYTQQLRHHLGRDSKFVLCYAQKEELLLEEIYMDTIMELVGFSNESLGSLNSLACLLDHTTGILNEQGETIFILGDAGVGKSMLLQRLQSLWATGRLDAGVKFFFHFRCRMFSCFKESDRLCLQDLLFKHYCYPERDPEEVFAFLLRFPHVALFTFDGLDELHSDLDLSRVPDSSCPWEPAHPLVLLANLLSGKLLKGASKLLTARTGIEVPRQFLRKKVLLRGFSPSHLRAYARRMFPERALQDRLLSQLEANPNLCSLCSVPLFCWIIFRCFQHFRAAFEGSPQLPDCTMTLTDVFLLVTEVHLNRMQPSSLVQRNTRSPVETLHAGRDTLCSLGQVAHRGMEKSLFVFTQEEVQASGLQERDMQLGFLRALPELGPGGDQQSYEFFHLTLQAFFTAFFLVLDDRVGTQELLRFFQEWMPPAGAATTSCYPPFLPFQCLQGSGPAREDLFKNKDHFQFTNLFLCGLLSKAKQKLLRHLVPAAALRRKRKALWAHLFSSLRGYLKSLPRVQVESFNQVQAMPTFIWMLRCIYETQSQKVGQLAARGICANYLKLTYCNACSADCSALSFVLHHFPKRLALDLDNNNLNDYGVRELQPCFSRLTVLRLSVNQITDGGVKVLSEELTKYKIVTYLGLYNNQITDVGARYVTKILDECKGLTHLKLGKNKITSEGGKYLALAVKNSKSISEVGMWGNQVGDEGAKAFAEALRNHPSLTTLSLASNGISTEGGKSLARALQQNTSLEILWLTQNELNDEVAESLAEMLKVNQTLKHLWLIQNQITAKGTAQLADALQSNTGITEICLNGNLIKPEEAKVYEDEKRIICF
Method: Inhibitors of iE-DAP-stimulated IL-8 release were screened in a 1536-well assay in which 293/hNOD1 cells (5000 cells/well) in DMEM high glucose medium supplemented with 0.1% FBS and 10 µg/mL Blasticidin S were stimulated with 60 ng/mL (200 nM) iE-DAP (EC80) in the presence of 10 µM compounds. After 24 hours the amount of IL-8 secreted into the medium was determined by homogeneous time resolved fluorescence (HTRF) assay by the direct addition of a 1∶1 mix of europium cryptate and XL665-conjugated anti-IL-8 antibodies according to the manufacturer’s instructions (Cisbio). Fluorescence was measured after 2 hours in a ViewLux imager using UMB-AMC excitation and 618–671 nm emission filters (Perkin Elmer). […] Inhibition of TNFR1-induced IL-8 release was performed with 293/hNOD1 cells stimulated with 20 ng/mL (∼EC95) rhTNFα.
A high-throughput screen of about 2.2 million compounds was conducted for inhibitors of the NOD1 signaling pathway using suppression of iE-DAP stimulated IL-8 secretion in HEK293 cells stably expressing human NOD1 (293/hNOD1 cells). […] These assays were chosen to assess the selectivity of hits because the signaling pathways activated by these receptors converge at the level of the TAB/TAK1/IKK complex.

[2] = system: NOD1 induced NF-κB and MAPK pathways; assay: Western blotting of IκBα and phospho-MAPKs in Tri-DAP stimulated 293/hNOD1 cells; assay type: cell-based, human; conditions: 50 µg/mL Tri-DAP 1 hour, immunoblotting
Method: Confluent cultures of 293/hNOD1 and -hNOD2 cells seeded in 24-well plates were serum-starved over-night, pre-incubated for 1 hour with compound and then stimulated for 1 hour with either 50 µg/mL Tri-DAP or 25 µg/mL MDP, respectively. Whole cell lysates were prepared in 1X cell lysis buffer (Cell Signaling Technology) supplemented with additional protease, aminopeptidase and phosphatase inhibitors (protease inhibitor cocktail set III, EMD Biosciences; phosphatase inhibitor sets II and III, Sigma-Aldrich). The levels of phosphorylated and total p38, JNK, ERK1/2 and total IκBα were determined by immunoblotting of ∼20 µg protein per sample using the following primary antibodies: phospho-p38 MAPK (12F8, #4631), p38 MAPK (#9212), phospho-JNK (#9251), JNK (#9252) and IκBα (#9242) all purchased from Cell Signaling Technology, and phospho-ERK1/2 (sc-7383) and ERK1/2 (sc-94) antibodies from Santa Cruz Biotechnology.

CLND solubility = assay type: physicochemical; conditions: phosphate buffered saline with 5% DMSO, pH 7.4, aqueous buffer, kinetic from dmso stock; 5% DMSO pH7.4 phosphate buffered saline
Text: (§1) Physicochemical analyses of compounds were completed at GSK.

[3] = Chromatographic hydrophobicity index (Chrom log D); assay type: physicochemical; conditions: pH 7.4
Text: as §1

[4] = Permeability across an artificial membrane; assay type: in vitro ADME; conditions: PAMPA
Text: as §1

human serum albumin = human serum albumin (Homo sapiens, UniProt P02768); assay: Human serum albumin (HSA) binding; assay type: in vitro ADME
Text: as §1

α1-acid glycoprotein = α1-acid glycoprotein (AGP) binding; assay type: in vitro ADME
Text: as §1

[5] = Immobilized artificial membrane (IAM) binding; assay type: physicochemical
Text: as §1

NOD1 [6] = conditions: HEK293T cells, read-out: IC50 NF-κB reporter, cited from earlier work
NOD1 [7] = system: NOD1; design: method as in PMID 22062585; conditions: read-out: NOD1 IC50 (nucleotide binding); cited from earlier work
NOD2 = system: NOD2; design: method as in PMID 22549783; conditions: read-out: NOD2 IC50 (nucleotide binding); cited from earlier work
[8] = iE-DAP-stimulated IL-8 production in 293/hNOD1 cells, SAR figures, read-out: NOD1 XC50
[9] = HEK293 stably expressing human NOD1, IL-8 released into medium, read-out: IC50 293/hNOD1 iE-DAP

human serum albumin, sequence (P02768 25-609): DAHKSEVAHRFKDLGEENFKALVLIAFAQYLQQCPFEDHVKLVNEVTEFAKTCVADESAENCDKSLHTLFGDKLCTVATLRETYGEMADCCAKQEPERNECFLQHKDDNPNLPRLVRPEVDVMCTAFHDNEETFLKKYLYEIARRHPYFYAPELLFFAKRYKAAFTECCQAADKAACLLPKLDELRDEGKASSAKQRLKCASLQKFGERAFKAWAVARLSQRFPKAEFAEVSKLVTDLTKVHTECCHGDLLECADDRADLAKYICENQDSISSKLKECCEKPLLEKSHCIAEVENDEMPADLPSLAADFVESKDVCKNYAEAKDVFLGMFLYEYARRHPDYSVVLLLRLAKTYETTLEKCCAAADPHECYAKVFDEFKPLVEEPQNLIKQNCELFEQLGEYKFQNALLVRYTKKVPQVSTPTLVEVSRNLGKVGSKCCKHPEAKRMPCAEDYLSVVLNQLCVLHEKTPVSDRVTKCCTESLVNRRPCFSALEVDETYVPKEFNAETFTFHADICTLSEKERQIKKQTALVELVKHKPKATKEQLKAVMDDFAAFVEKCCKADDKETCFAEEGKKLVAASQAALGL

IC50 (NOD1 [1]; [8]): 0.026 µM
Compound: Cc1nc2ccc(Cl)cc2c(=O)n1-c1ccc(Cl)c(NS(=O)(=O)c2ccccc2F)c1 [Compound 26, N-(2-chloro-5-(6-chloro-2-methyl-4-oxoquinazolin-3(4H)-yl)phenyl)-2-fluorobenzenesulfonamide]

IC50 (NOD1 [1]; [8]): 1.1 ± 0.7 µM
Compound: Cc1ccc(S(=O)(=O)Nc2cc(-n3c(C)nc4ccccc4c3=O)ccc2F)cc1C [Compound 11]

IC50 (NOD1 [1]; [8]): 2.2 ± 3.3 µM
Compound: Cc1nc2ccccc2c(=O)n1-c1ccc(F)c(NS(=O)(=O)c2ccc(F)cc2F)c1 [Compound 10]

IC50 (NOD1 [1]; [8]): 3.5 ± 0.5 µM
Compound: Cc1nc(C)n(-c2ccc(Cl)c(NS(=O)(=O)c3ccccc3F)c2)c(=O)c1C [Compound 28, N-(2-chloro-5-(2,4,5-trimethyl-6-oxopyrimidin-1(6H)-yl)phenyl)-2-fluorobenzenesulfonamide]

IC50 (NOD1 [1]; [8]): 0.5 ± 0.1 µM
Compound: COc1ccc(Cl)cc1S(=O)(=O)Nc1cc(-n2c(C)nc3ccccc3c2=O)ccc1Cl [Compound 25]

IC50 (NOD1 [1]; [8]): 0.1 ± 0.04 µM
Compound: Cc1nc2ccccc2c(=O)n1-c1ccc(Cl)c(NS(=O)(=O)c2ccc3c(c2)OCCO3)c1 [Compound 23]

IC50 (NOD1 [1]; [8]): 2.5 ± 1.2 µM
Compound: Cc1nc2cc(Cl)ccc2c(=O)n1-c1ccc(Cl)c(NS(=O)(=O)c2ccccc2F)c1 [Compound 27, N-(2-chloro-5-(7-chloro-2-methyl-4-oxoquinazolin-3(4H)-yl)phenyl)-2-fluorobenzenesulfonamide]

IC50 (NOD1 [1]; [9]): 0.7 µM
Compound: Cc1nc2ccccc2c(=O)n1-c1ccc(F)c(NS(=O)(=O)c2ccc(Cl)s2)c1 [Compound 9]
effect on Tri-DAP induced p-JNK, p-p38 and IκBα responses [2]: reduced both phospho-JNK and the weaker phospho-p38 levels while levels of IκBα were increased

IC50 (NOD1 [1]; [8]): 0.2 ± 0.2 µM
Compound: Cc1ccc(S(=O)(=O)Nc2cc(-n3c(C)nc4ccccc4c3=O)ccc2Cl)cc1 [Compound 24]

IC50 (NOD1 [1]; [8]): 1.2 ± 0.1 µM
Compound: Cc1nc2ccccc2c(=O)n1-c1ccc(F)c(NS(=O)(=O)c2cc(Cl)ccc2Cl)c1 [Compound 12]

IC50 (NOD1 [1]; [8]): 2.3 ± 1.7 µM | solubility (CLND solubility): 423 µM (≈ 176 µg/mL) | chromatographic logD [3]: 2.87 | Papp [4]: 260 nm/s | HSA binding (human serum albumin): 96.08% | AGP binding (α1-acid glycoprotein): 81.23% | IAM binding [5]: 1.36 log K
Compound: Cc1nc2ccccc2c(=O)n1-c1ccc(F)c(NS(=O)(=O)c2cccs2)c1 [Compound 13]

IC50 (NOD1 [1]; [9]): 15.1 µM
Compound: CCc1ccc(S(=O)(=O)Nc2cccc(-n3c(C)nc4ccccc4c3=O)c2)s1 [Compound 14]

IC50 (NOD1 [1]; [9]): 0.7 µM | solubility (CLND solubility): 391 µM (≈ 167 µg/mL) | chromatographic logD [3]: 3.24 | Papp [4]: 350 nm/s | HSA binding (human serum albumin): 96.05% | AGP binding (α1-acid glycoprotein): 80.38% | IAM binding [5]: 1.42 log K
Compound: Cc1nc2ccccc2c(=O)n1-c1ccc(F)c(NS(=O)(=O)c2ccccc2F)c1 [Compound 8]

IC50 (NOD1 [1]; [8]): 25 ± 17.5 µM
Compound: Cc1cc(=O)n(-c2ccc(Cl)c(NS(=O)(=O)c3ccccc3F)c2)c(C)n1 [Compound 29, N-(2-chloro-5-(2,4-dimethyl-6-oxopyrimidin-1(6H)-yl)phenyl)-2-fluorobenzenesulfonamide]

IC50 (NOD1 [1]; [8]): 0.76 ± 0.1 µM
Compound: Cc1ccc(S(=O)(=O)Nc2cccc(C(=O)Nc3ccc4nc(C)sc4c3)c2)c(F)c1 [Compound 17]

Further lines, the molecule ahead of its results:

Compound: COc1ccc(S(=O)(=O)Nc2cccc(C(=O)Nc3ccc4nc(C)sc4c3)c2)cc1 [Compound 20]
IC50 (NOD1 [1]; [8]): 2.3 ± 0.8 µM

Compound: C/C=C/Cn1c(SCCc2ccccc2)nc2c1c(=O)[nH]c(=O)n2C [Compound 6]
IC50 (NOD1 [1]; [8]): 9.6 ± 2.8 µM

Compound: Cn1c(=O)[nH]c(=O)c2c1nc(SCCCc1ccccc1)n2Cc1ccccc1 [Compound 4]
IC50 (NOD1 [1]; [8]): 8.7 ± 1.5 µM

Compound: Cc1ccc(S(=O)(=O)Nc2cccc(C(=O)Nc3nc4ccc([N+](=O)[O-])cc4s3)c2)cc1 [Compound 15]
IC50 (NOD1 [1]; [9]): 0.2 µM | IC50 (NOD1 [1]; [8]): 0.19 ± 0.03 µM

Compound: O=C(Nc1ccc2c(c1)OCO2)c1cccc(NS(=O)(=O)c2ccc(Cl)cc2)c1 [Compound 21]
IC50 (NOD1 [1]; [8]): 3.7 ± 1.4 µM | solubility (CLND solubility): 46 µM (≈ 19.8 µg/mL) | chromatographic logD [3]: 5.17 | Papp [4]: 230 nm/s | HSA binding (human serum albumin): 98.01% | AGP binding (α1-acid glycoprotein): 87.41% | IAM binding [5]: 2.40 log K

Compound: C/C=C/Cn1c(SCCCc2ccccc2)nc2c1c(=O)[nH]c(=O)n2C [ML146]
IC50 (NOD1 [6]; ref Magnuson et al, 2010): 1.5 µM

Compound: Cc1ccc(S(=O)(=O)n2c(N)nc3ccccc32)cc1 [ML130]
IC50 (NOD1 [6]): 0.56 µM

Compound: Cn1c(=O)[nH]c(=O)c2c1nc(SCCc1ccccc1)n2Cc1ccccc1 [Compound 1]
IC50 (NOD1 [1]; [8]): 0.4 ± 0.08 µM

Compound: N#Cc1ccc(-c2csc(NC(=O)c3cccc(NS(=O)(=O)c4ccc(Cl)cc4)c3)n2)cc1 [Compound 19]
IC50 (NOD1 [1]; [8]): 2 ± 0.5 µM

Compound: CC(=O)Nc1ccc2nc(NC(=O)c3cccc(NS(=O)(=O)c4ccc(C)cc4)c3)sc2c1 [Compound 18]
IC50 (NOD1 [1]; [8]): 1.4 ± 0.3 µM

Compound: CCCCCCSc1nc2c(c(=O)[nH]c(=O)n2C)n1Cc1ccccc1 [Compound 3]
IC50 (NOD1 [1]; [8]): 4.7 ± 1.4 µM

Compound: Cn1c(=O)[nH]c(=O)c2c1nc(SCc1ccccc1)n2Cc1ccccc1 [Compound 7]
IC50 (NOD1 [1]; [8]): 37.3 ± 18.1 µM

Compound: Cc1cccc(CSc2nc3c(c(=O)[nH]c(=O)n3C)n2Cc2ccccc2)c1 [Compound 5]
IC50 (NOD1 [1]; [8]): 8.9 ± 1.6 µM

Compound: Cn1c(=O)[nH]c(=O)c2c1nc(CCCSc1ccccc1)n2Cc1ccccc1 [Compound 2]
IC50 (NOD1 [1]; [8]): 2.5 ± 1.3 µM

Compound: Nc1ncnc2c1ncn2[C@@H]1O[C@H](COP(=O)(O)OP(=O)(O)OP(=O)(O)O)[C@@H](O)[C@H]1O [ATP]
IC50 (NOD1 [7]): ~0.015 µM | IC50 (NOD2): ~0.06 µM
